Data published in patent US11534457B2, “Use of dextran sulfate” (priority 2017, dated 2022).

System: severe traumatic brain injury (sTBI)
Assay: sTBI in rats, brain gene expression arrays and pathway analysis (Example 9)
Type: in vivo, Male Wistar rats
Description: The experimental protocol used in this study was approved by the Ethical Committee of the Catholic University of Rome, according to international standards and guidelines for animal care. Male Wistar rats of 300-350 g body weight were fed with standard laboratory diet and water ad libitum in a controlled environment. As the anesthetic mixture, the animals received 35 mg/kg b.w. ketamine and 0.25 mg/kg body weight midazolam by i.p. injection. Severe traumatic brain injury (sTBI) was induced by dropping a 450 g weight from 2 m height on to the rat head that had been protected by a metal disk previously fixed on the skull, according to the “weight drop” impact acceleration model (Marmarou et al., A new model of diffuse brain injury in rats. Part I: Pathophysiology and biomechanics. J Neurosurg. 1994; 80: 291-300). […] At the end of each period of treatment, rats were anesthetized again and then immediately sacrificed.
LMW-DS (Tikomed AB) was provided at a stock concentration of 20 mg/ml and was kept in a temperature-monitored refrigerator at 4° C. LMW-DS aliquots were diluted to the appropriate dosing concentration in sterile saline prior to delivery of a single subcutaneous injection.
Three doses of LMW-DS were administered subcutaneously 30 minutes post-TBI. The animals were sacrificed at 2 days post-TBI. The animals were divided into the following subgroups:
Three doses of LMW-DS were administered subcutaneously 30 minutes post-TBI. The animals were sacrificed at 7 days post-TBI. The animals were divided into the following subgroups:
An in vivo craniectomy was performed on all animals during anesthesia. After carefully removing the rat's skull, the brain was exposed and removed with a surgical spatula and quickly dropped in RNALater and preserved at 4° C. for further processing.
RNA extraction and array processing was carried out by SourceBioscience. The arrays used were the Agilent Rat expression arrays.
Statistical analysis was carried out using the Metaboanalyst software package. Gene expression changes of 10% with a p<0.05 were regarded as significant.
Pathway analysis of the differentially regulated genes was carried out using the Ingenuity pathway analysis package. The analysis was performed with special reference to pathways and molecular processes and diseases associated with neurodegenerative disease, including dementia, Alzheimer's disease, ALS, TBI and stroke, and with scarring and fibrosis, including glaucoma and normal pressure hydrocephalus (NPH) after subarachnoid haemorrhage.

[1] = TBI + 1 mg/kg LMW-DS, 2 days after TBI
[2] = TBI + 1 mg/kg LMW-DS, 7 days after TBI
[3] = TBI + 1 mg/kg LMW-DS, 7 days after TBI, relative to control
[4] = TBI + 1 mg/kg LMW-DS, after 7 days, TBI: Activated
[5] = TBI + 1 mg/kg LMW-DS, after 7 days, TBI: Inhibited
[6] = TBI + 5 mg/kg LMW-DS, 2 days after TBI
[7] = TBI + 5 mg/kg LMW-DS, 7 days after TBI

low molecular weight dextran sulfate [LMW-DS]
2.084: z score: Cell movement of endothelial cells [7]
−1.981: z score: Tumorigenesis of epithelial neoplasm [2]
0.905: z score: Cancer [7]
−1.026: z score: Breast or pancreatic cancer [7]
−2.128: z score: Frequency of tumor [2]
−1: Ingenuity canonical pathway Adrenomedullin signaling pathway, z score [3]
−0.155: z score: Adenocarcinoma [7]
−0.403: z score: Carcinoma [7]
3.907: z score: Cell movement of myeloid cells [7]
Activated: Diseases or functions annotation: Migration of cells [1] | Diseases or functions annotation: Quantity of connective tissue cells [1] | Diseases or functions annotation: Synthesis of hormone [1] | Diseases or functions annotation: Thrombus [1] | Diseases or functions annotation: Transport of molecule [1] | Ingenuity canonical pathway: Endothelin-1 Signaling [2] | Ingenuity canonical pathway: G Beta Gamma Signaling [2] | Ingenuity canonical pathway: Role of NFAT in Regulation of the Immune Response [2] | Ingenuity canonical pathway: Synaptic Long Term Depression [2] | Diseases or functions annotation: Vaso-occlusion [4] | Diseases or functions annotation: Quantity of carbohydrate [5] | Diseases or functions annotation: Quantity of metal [5] | Diseases or functions annotation: Synthesis of lipid [5] | Diseases or functions annotation: Weight gain [5] | Diseases or functions annotation: Apoptosis [6] | Diseases or functions annotation: Cell death [6] | Diseases or functions annotation: Edema [6] | Diseases or functions annotation: Secretion of molecule [6] | Diseases or functions annotation: Transport of molecule [6] | Ingenuity canonical pathway: Acute Phase Response Signaling [7] | Ingenuity canonical pathway: Cardiac Hypertrophy Signaling [7] | Ingenuity canonical pathway: Dendritic Cell Maturation [7] | Ingenuity canonical pathway: ERK/MAPK Signaling [7] | Ingenuity canonical pathway: Endothelin-1 Signaling [7] | Ingenuity canonical pathway: Fcγ Receptor-mediated Phagocytosis in Macrophages and Monocytes [7] | Ingenuity canonical pathway: GNRH Signaling [7] | Ingenuity canonical pathway: HMGB1 Signaling [7] | Ingenuity canonical pathway: IL-1 Signaling [7] | Ingenuity canonical pathway: IL-6 Signaling [7] | Ingenuity canonical pathway: IL-8 Signaling [7] | Ingenuity canonical pathway: ILK Signaling [7] | Ingenuity canonical pathway: Leukocyte Extravasation Signaling [7] | Ingenuity canonical pathway: Neuroinflammation Signaling Pathway [7] | Ingenuity canonical pathway: PI3K Signaling in B Lymphocytes [7] | Ingenuity canonical pathway: PKCθ Signaling in T Lymphocytes [7] | Ingenuity canonical pathway: Phospholipase C Signaling [7] | Ingenuity canonical pathway: Production of Nitric Oxide and Reactive Oxygen Species in Macrophages [7] | Ingenuity canonical pathway: Role of NFAT in Regulation of the Immune Response [7] | Ingenuity canonical pathway: Signaling by Rho Family GTPases [7] | Ingenuity canonical pathway: Synaptic Long Term Depression [7] | Ingenuity canonical pathway: mTOR Signaling [7]
0.816: Ingenuity canonical pathway Role of NFAT in Regulation of the Immune Response, z score [3]
−1.396: z score: Digestive organ tumor [2]
−2: Ingenuity canonical pathway ERK5 Signaling, z score [3]
−1.214: z score: Pelvic tumor [2]
1.492: z score: Cell movement of tumor cell lines [7]
−0.537: z score: Malignant genitourinary solid tumor [2]
−0.349: z score: Differentiation of connective tissue cells [2]
0.49: z score: Quantity of carbohydrate [2]
−0.941: z score: Apoptosis of tumor cell lines [7]
1: Ingenuity canonical pathway G Beta Gamma Signaling, z score [3] | Ingenuity canonical pathway mTOR Signaling, z score [3]
1.966: z score: Cell survival [7]
1.342: Ingenuity canonical pathway Endothelin-1 Signaling, z score [3] | Ingenuity canonical pathway Synaptic Long Term Depression, z score [3]
0.991: z score: Cell viability of tumor cell lines [7]
−1.313: z score: Epithelial neoplasm [2]
0.625: z score: Weight gain [2]
0.742: z score: Cancer of cells [7]
−1.614: z score: Incidence of tumor [2]
−0.474: z score: Abdominal cancer [7]
−0.32: z score: Concentration of hormone [2]
−0.152: z score: Developmental process of synapse [2] | z score: Formation of plasma membrane [2]
−0.686: z score: Hematopoietic neoplasm [2]
0.033: z score: Synthesis of lipid [2]
2.297: z score: Cell movement [7]
−0.998: z score: Tumorigenesis of tissue [2]
Inhibited: Diseases or functions annotation: Necrosis [1] | Diseases or functions annotation: Non-hematologic malignant neoplasm [1] | Diseases or functions annotation: Pelvic tumor [1] | Diseases or functions annotation: Proliferation of blood cells [1] | Diseases or functions annotation: Proliferation of lymphatic system cells [1] | Diseases or functions annotation: Proliferation of lymphocytes [1] | Diseases or functions annotation: Quantity of blood cells [1] | Diseases or functions annotation: Quantity of bone [1] | Diseases or functions annotation: Quantity of cells [1] | Diseases or functions annotation: Quantity of leukocytes [1] | Diseases or functions annotation: Quantity of lymphatic system cells [1] | Diseases or functions annotation: Quantity of phagocytes [1] | Diseases or functions annotation: Rheumatic Disease [1] | Diseases or functions annotation: Solid tumor [1] | Diseases or functions annotation: Survival of organism [1] | Ingenuity canonical pathway: Adrenomedullin signaling pathway [2] | Ingenuity canonical pathway: ERK5 Signaling [2] | Ingenuity canonical pathway: NF-κB Signaling [2] | Ingenuity canonical pathway: Opioid Signaling Pathway [2] | Diseases or functions annotation: Development of malignant tumor [4] | Diseases or functions annotation: Digestive organ tumor [4] | Diseases or functions annotation: Frequency of tumor [4] | Diseases or functions annotation: Gastrointestinal tumor [4] | Diseases or functions annotation: Hematologic cancer [4] | Diseases or functions annotation: Hematopoietic neoplasm [4] | Diseases or functions annotation: Incidence of tumor [4] | Diseases or functions annotation: Large intestine neoplasm [4] | Diseases or functions annotation: Abdominal cancer [5] | Diseases or functions annotation: Abdominal carcinoma [5] | Diseases or functions annotation: Cell movement [5] | Diseases or functions annotation: Cell viability [5] | Diseases or functions annotation: Concentration of hormone [5] | Diseases or functions annotation: Development of connective tissue cells [5] | Diseases or functions annotation: Developmental process of synapse [5] | Diseases or functions annotation: Differentiation of bone cells [5] | Diseases or functions annotation: Differentiation of connective tissue cells [5] | Diseases or functions annotation: Digestive system cancer [5] | Diseases or functions annotation: Epithelial neoplasm [5] | Diseases or functions annotation: Formation of plasma membrane [5] | Diseases or functions annotation: Liver tumor [5] | Diseases or functions annotation: Malignant genitourinary solid tumor [5] | Diseases or functions annotation: Metabolism of hormone [5] | Diseases or functions annotation: Pelvic tumor [5] | Diseases or functions annotation: Quantity of Ca^2+ [5] | Diseases or functions annotation: Tumorigenesis of epithelial neoplasm [5] | Diseases or functions annotation: Tumorigenesis of tissue [5] | Diseases or functions annotation: Abdominal cancer [6] | Diseases or functions annotation: Abdominal carcinoma [6] | Diseases or functions annotation: Abdominal neoplasm [6] | Diseases or functions annotation: Behavior [6] | Diseases or functions annotation: Carcinoma [6] | Diseases or functions annotation: Cell death of antigen presenting cells [6] | Diseases or functions annotation: Cell death of immune cells [6] | Diseases or functions annotation: Cell death of tumor cell lines [6] | Diseases or functions annotation: Cell movement [6] | Diseases or functions annotation: Cell movement of tumor cell lines [6] | Diseases or functions annotation: Cell proliferation of leukocyte cell lines [6] | Diseases or functions annotation: Cellular homeostasis [6] | Diseases or functions annotation: Chemotaxis [6] | Diseases or functions annotation: Concentration of prostaglandin [6] | Diseases or functions annotation: Development of vasculature [6] | Diseases or functions annotation: Digestive organ tumor [6] | Diseases or functions annotation: Digestive system cancer [6] | Diseases or functions annotation: Epithelial neoplasm [6] | Diseases or functions annotation: Extracranial solid tumor [6] | Diseases or functions annotation: Feeding [6] | Diseases or functions annotation: Growth of tumor [6] | Diseases or functions annotation: Hematologic cancer [6] | Diseases or functions annotation: Incidence of tumor [6] | Diseases or functions annotation: Leukocyte migration [6] | Diseases or functions annotation: Leukopoiesis [6] | Diseases or functions annotation: Locomotion [6] | Diseases or functions annotation: Lymphocyte homeostasis [6] | Diseases or functions annotation: Lymphocytic cancer [6] | Diseases or functions annotation: Lymphocytic neoplasm [6] | Diseases or functions annotation: Lymphopoiesis [6] | Diseases or functions annotation: Lymphoproliferative disorder [6] | Diseases or functions annotation: Malignant solid tumor [6] | Diseases or functions annotation: Metabolism of hormone [6] | Diseases or functions annotation: Migration of cells [6] | Diseases or functions annotation: Necrosis [6] | Diseases or functions annotation: Neoplasia of leukocytes [6] | Diseases or functions annotation: Non-melanoma solid tumor [6] | Diseases or functions annotation: Proliferation of hematopoietic progenitor cells [6] | Diseases or functions annotation: Quantity of cells [6] | Diseases or functions annotation: Quantity of epithelial tissue [6] | Diseases or functions annotation: Quantity of neuroglia [6] | Diseases or functions annotation: Resorption of bone [6] | Diseases or functions annotation: Size of body [6] | Diseases or functions annotation: Synthesis of hormone [6] | Diseases or functions annotation: Transcription of RNA [6] | Diseases or functions annotation: Vasculogenesis [6] | Ingenuity canonical pathway: Adrenomedullin signaling pathway [7] | Ingenuity canonical pathway: Colorectal Cancer Metastasis Signaling [7] | Ingenuity canonical pathway: ERK5 Signaling [7] | Ingenuity canonical pathway: Osteoarthritis Pathway [7] | Ingenuity canonical pathway: PPAR Signaling [7] | Ingenuity canonical pathway: Protein Kinase A Signaling [7] | Ingenuity canonical pathway: Wnt/β-catenin Signaling [7] | Ingenuity canonical pathway: cAMP-mediated signaling [7]
−2.426: z score: Abdominal cancer [2]
−0.005: z score: Development of connective tissue cells [2]
−1.192: z score: Large intestine neoplasm [2]
−1.953: z score: Breast or colorectal cancer [7] | z score: Breast or ovarian cancer [7]
−1.799: z score: Differentiation of bone cells [2]
0.061: z score: Abdominal neoplasm [7]
−1.066: z score: Metabolism of hormone [2]
−1.067: z score: Hematologic cancer [2]
1.264: z score: Vaso-occlusion [2]
−1.029: z score: Gastrointestinal tumor [2]
0.294: z score: Angiogenesis [7]
−1.96: z score: Digestive system cancer [2]
0.73: z score: Abdominal adenocarcinoma [7]
−1.326: z score: Development of malignant tumor [2]
−0.447: Ingenuity canonical pathway NF-κB Signaling, z score [3] | Ingenuity canonical pathway Opioid Signaling Pathway, z score [3]
−1.584: z score: Cell viability [2]
−1.91: z score: Liver tumor [2]
1.58: z score: Cell cycle progression [7]
0.64: z score: Cancer of secretory structure [7]
−0.831: z score: Abdominal carcinoma [7]
0.791: z score: Cell death [7]
0.415: z score: Quantity of metal [2]
1.879: z score: Cell viability [7]
−2.118: z score: Bleeding [7]
−0.11: z score: Quantity of Ca^2+ [2]
−1.01: z score: Cell movement [2]
−0.676: z score: Apoptosis [7]
−0.811: z score: Cell death of tumor cell lines [7]
1.993: z score: Cell death of epithelial cells [7]
−1.987: z score: Abdominal carcinoma [2]
